From patent US20150232420A1, “TRANSGLUTAMINASE TG2 INHIBITORS, PHARMACEUTICAL COMPOSITIONS, AND METHODS OF USE THEREOF” (priority 2012, published 2015)

These compounds were tested against T1, human TG2 (Homo sapiens, UniProt P21980) (assay: fluorescent screening assay for human TG2). Details: Table 7; 20 nM TG2, 37° C.; read-out: IC50.
T1 sequence (P21980 1-687): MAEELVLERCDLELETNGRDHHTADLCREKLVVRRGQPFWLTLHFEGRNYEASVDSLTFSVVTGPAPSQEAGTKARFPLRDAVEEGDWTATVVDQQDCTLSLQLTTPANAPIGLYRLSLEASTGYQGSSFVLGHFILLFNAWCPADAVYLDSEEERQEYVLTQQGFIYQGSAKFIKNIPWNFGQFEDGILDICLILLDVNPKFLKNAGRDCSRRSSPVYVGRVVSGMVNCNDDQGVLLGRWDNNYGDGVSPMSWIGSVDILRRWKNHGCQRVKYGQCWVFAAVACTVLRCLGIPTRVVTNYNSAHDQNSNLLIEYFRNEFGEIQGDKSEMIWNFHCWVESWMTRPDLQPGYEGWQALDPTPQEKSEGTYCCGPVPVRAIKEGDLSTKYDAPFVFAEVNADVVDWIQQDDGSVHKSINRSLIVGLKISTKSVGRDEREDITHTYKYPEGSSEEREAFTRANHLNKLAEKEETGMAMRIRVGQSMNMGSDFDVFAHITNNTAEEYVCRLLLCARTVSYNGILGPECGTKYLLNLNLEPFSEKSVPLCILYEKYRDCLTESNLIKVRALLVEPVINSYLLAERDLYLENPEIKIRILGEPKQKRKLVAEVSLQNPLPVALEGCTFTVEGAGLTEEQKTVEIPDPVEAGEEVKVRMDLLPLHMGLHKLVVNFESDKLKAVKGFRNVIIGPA
Format: biochemical
Procedure: The fluorescent screening assay for human TG2 was performed as described herein: Assay conditions were 20 nM TG2, 8 μM N,N-dimethylated Casein (NMC) and 16 μM K×D (used for all transglutaminase assays) in 25 mM Hepes, pH 7.4, 250 mM NaCl, 2 mM MgCl2, 0.5 mM CaCl2, 0.2 mM DTT, 0.05% Pluronic F-127 at 37° C. A time point was taken with a microplate reader (Safire or Ultra, Tecan; ex: 350 nm, em: 535 nm) every 3 minutes for up to 2 hours and the initial linear reaction progress was used to determine the reaction velocity as a measure for enzyme activity. Assay conditions were identical for human TG6 and similar for human TG1 and mouse TG2 apart from enzyme concentration (mTG2 at 5 nM; TG1 at 10 nM) and CaCl2 concentration (0.2 mM for mTG2; 0.05 mM for TG1). Factor XIIIa was activated using 0.1 μg/μl thrombin (Sigma) in 35 mM Tris pH 8.0 for 20 min at 30° C. and the transamidation reaction was performed with 20 nM Factor XIIIa in 50 mM Tris pH 8.0, 1.25 mM CaCl2, 0.05% Pluronic, 0.2 mM DTT. TG3 was activated with 0.02 μg/μl thrombin under the same conditions as Factor XIIIa and assay conditions were 10 nM TG3 in 50 mM Hepes, pH 8, 20 mM CaCl2, 0.2 mM DTT, 0.05% Pluronic F-127.

SMILES	IC50 [nM]
C=CC(=O)NCCCC[C@H](NC(=O)c1ccc2ccccc2c1)C(=O)N1CCN(c2cccc(C)n2)CC1 [N-[(5S)-6-[4-(6-methylpyridin-2-yl)piperazin-1-yl]-5-(naphthalen-2-ylformamido)-6-oxohexyl]prop-2-enamide]	1000 to 100000
C=CC(=O)NCCCC[C@H](NC(=O)OCc1ccccc1)C(=O)O [(2S)-2-{[(benzyloxy)carbonyl]amino}-6-(prop-2-enamido)hexanoic acid]	1000 to 100000
C=CC(=O)N1CCC(CC(NC(=O)OC(C)(C)C)C(=O)O)CC1 (stereo not drawn) [2-{[(tert-butoxy)carbonyl]amino}-3-[1-(prop-2-enoyl)piperidin-4-yl]propanoic acid]	1000 to 100000
C=CC(=O)NCCCC[C@H](NC(=O)OCc1ccccc1Cl)C(=O)O [(2S)-2-({[(2-chlorophenyl)methoxy]carbonyl}amino)-6-(prop-2-enamido)hexanoic acid]	1000 to 100000
C=CC(=O)NCCCC[C@H](NC(=O)OCc1ccccc1C(F)(F)F)C(=O)O [(2S)-6-(prop-2-enamido)-2-[({[2-(trifluoromethyl)phenyl]methoxy}carbonyl)amino]hexanoic acid]	1000 to 100000
C=CC(=O)NCCCC[C@@H](NC(=O)OCc1ccccc1)C(=O)O [(2R)-2-{[(benzyloxy)carbonyl]amino}-6-(prop-2-enamido)hexanoic acid]	1000 to 100000
C=CC(=O)NCCCC[C@H](NC(=O)OCc1ccccc1)C(=O)N(C)C [benzyl N-[(1S)-1-(dimethylcarbamoyl)-5-(prop-2-enamido)pentyl]carbamate]	1000 to 100000
C=CC(=O)NCCCC[C@H](NC(=O)OCc1cccc(C(F)(F)F)c1)C(=O)O [(2S)-6-(prop-2-enamido)-2-[({[3-(trifluoromethyl)phenyl]methoxy}carbonyl)amino]hexanoic acid]	1000 to 100000
C=CC(=O)NCCCC[C@H](NC(=O)OCC1c2ccccc2-c2ccccc21)C(=O)O [(2S)-2-{[(9H-fluoren-9-ylmethoxy)carbonyl]amino}-6-(prop-2-enamido)hexanoic acid]	1000 to 100000
C=CC(=O)NCCCC[C@H](NC(=O)OCc1ccccc1)C(=O)N(CC)CC [benzyl N-[(1S)-1-(diethylcarbamoyl)-5-(prop-2-enamido)pentyl]carbamate]	1000 to 100000
C=CC(=O)NCCCC[C@H](NC(=O)OCc1ccccc1)C(=O)N1CCCCC1 [benzyl N-[(2S)-1-oxo-1-(piperidin-1-yl)-6-(prop-2-enamido)hexan-2-yl]carbamate]	1000 to 100000
C=CC(=O)NCCCC[C@@H](CO)NC(=O)OCc1ccccc1 [benzyl N-[(2S)-1-hydroxy-6-(prop-2-enamido)hexan-2-yl]carbamate]	1000 to 100000
C=CC(=O)NCCCC[C@H](NC(=O)OCc1ccc([N+](=O)[O-])cc1)C(=O)O [(2S)-2-({[(4-nitrophenyl)methoxy]carbonyl}amino)-6-(prop-2-enamido)hexanoic acid]	1000 to 100000
C=CC(=O)NCCCC[C@H](NC(=O)OCc1ccccc1)C(=O)N1CCN(C(=O)N2CCOCC2)CC1 [benzyl N-[(2S)-1-[4-(morpholine-4-carbonyl)piperazin-1-yl]-1-oxo-6-(prop-2-enamido)hexan-2-yl]carbamate]	100 to 1000
C=CC(=O)NCCCC[C@H](NC(=O)OCc1ccccc1)C(=O)N1Cc2ccccc2C1 [benzyl N-[(2S)-1-(2,3-dihydro-1H-isoindol-2-yl)-1-oxo-6-(prop-2-enamido)hexan-2-yl]carbamate]	100 to 1000
C=CC(=O)NCCCC[C@H](NC(=O)OC(C)(C)C)C(=O)N1CCN(c2cccc(C)n2)CC1 [tert-butyl N-[(2S)-1-[4-(6-methylpyridin-2-yl)piperazin-1-yl]-1-oxo-6-(prop-2-enamido)hexan-2-yl]carbamate]	100 to 1000
C=CC(=O)NCCCC[C@H](NC(C)=O)C(=O)N1CCN(c2cccc(C)n2)CC1 [N-[(5S)-5-acetamido-6-[4-(6-methylpyridin-2-yl)piperazin-1-yl]-6-oxohexyl]prop-2-enamide]	100 to 1000
C=CC(=O)NCCCC[C@H](NC(=O)OCc1ccc(F)cc1)C(=O)O [(2S)-2-({[(4-fluorophenyl)methoxy]carbonyl}amino)-6-(prop-2-enamido)hexanoic acid]	1000 to 100000
C=CC(=O)NCCCC[C@H](NC(=O)OCc1ccccc1)C(=O)N1CCN(C(=O)C2CC2)CC1 [benzyl N-[(2S)-1-(4-cyclopropanecarbonylpiperazin-1-yl)-1-oxo-6-(prop-2-enamido)hexan-2-yl]carbamate]	100 to 1000
C=CC(=O)NCCCC[C@H](NC(=O)OCc1ccc(C(F)(F)F)cc1)C(=O)O [(2S)-6-(prop-2-enamido)-2-[({[4-(trifluoromethyl)phenyl]methoxy}carbonyl)amino]hexanoic acid]	1000 to 100000
C=CC(=O)NCCCC[C@H](NC(=O)OCc1ccccc1)C(=O)N1CCN(c2ccc3ccccc3c2)CC1 [benzyl N-[(2S)-1-[4-(naphthalen-2-yl)piperazin-1-yl]-1-oxo-6-(prop-2-enamido)hexan-2-yl]carbamate]	100 to 1000
C=CC(=O)NCCCC[C@H](NC(=O)OCc1ccc(CCCC)cc1)C(=O)O [(2S)-2-({[(4-butylphenyl)methoxy]carbonyl}amino)-6-(prop-2-enamido)hexanoic acid]	1000 to 100000

Next, values leading:

IC50 [nM]	SMILES
100 to 1000	C=CC(=O)NCCCC[C@H](NC(=O)OCc1ccccc1)C(=O)N1CCN(C(=O)OC(C)(C)C)CC1 [tert-butyl 4-[(2S)-2-{[(benzyloxy)carbonyl]amino}-6-(prop-2-enamido)hexanoyl]piperazine-1-carboxylate]
100 to 1000	C=CC(=O)NCCCC[C@H](NC(=O)OCc1ccccc1)C(=O)N1CCC(F)(F)CC1 [benzyl N-[(2S)-1-(4,4-difluoropiperidin-1-yl)-1-oxo-6-(prop-2-enamido)hexan-2-yl]carbamate]
100 to 1000	C=CC(=O)NCCCC[C@H](NC(=O)OCc1ccccc1)C(=O)N1CCN(C(=O)C2CCOCC2)CC1 [benzyl N-[(2S)-1-[4-(oxane-4-carbonyl)piperazin-1-yl]-1-oxo-6-(prop-2-enamido)hexan-2-yl]carbamate]
100 to 1000	C=CC(=O)NCCCC[C@H](NC(=O)OCc1ccccc1)C(=O)N1CCCC1 [benzyl N-[(2S)-1-oxo-6-(prop-2-enamido)-1-(pyrrolidin-1-yl)hexan-2-yl]carbamate]
100 to 1000	C=CC(=O)NCCCC[C@H](NC(=O)OCc1ccccc1)C(=O)N1CCN(c2ccccn2)CC1 [benzyl N-[(2S)-1-oxo-6-(prop-2-enamido)-1-[4-(pyridin-2-yl)piperazin-1-yl]hexan-2-yl]carbamate]
100 to 1000	C=CC(=O)NCCCC[C@H](NC(=O)OCc1ccccc1)C(=O)N1CCOCC1 [benzyl N-[(2S)-1-(morpholin-4-yl)-1-oxo-6-(prop-2-enamido)hexan-2-yl]carbamate]
< 100	C=CC(=O)NCCCC[C@H](NC(=O)OCc1ccccc1)C(=O)N1CCN(c2cc(Cl)ccc2OC)CC1 [benzyl N-[(2S)-1-[4-(5-chloro-2-methoxyphenyl)piperazin-1-yl]-1-oxo-6-(prop-2-enamido)hexan-2-yl]carbamate]
100 to 1000	C=CC(=O)NCCCC[C@H](NC(=O)OCc1ccccc1)C(=O)N1CCN(c2nccs2)CC1 [benzyl N-[(2S)-1-oxo-6-(prop-2-enamido)-1-[4-(1,3-thiazol-2-yl)piperazin-1-yl]hexan-2-yl]carbamate]
100 to 1000	C=CC(=O)NCCCC[C@H](NC(=O)c1ccccc1)C(=O)N1CCN(c2cccc(C)n2)CC1 [N-[(5S)-6-[4-(6-methylpyridin-2-yl)piperazin-1-yl]-6-oxo-5-(phenylformamido)hexyl]prop-2-enamide]
100 to 1000	C=CC(=O)NCCCC[C@H](NC(=O)OCc1ccccc1)C(=O)N1CCN(c2ccc(C(F)(F)F)cn2)CC1 [benzyl N-[(2S)-1-oxo-6-(prop-2-enamido)-1-{4-[5-(trifluoromethyl)pyridin-2-yl]piperazin-1-yl}hexan-2-yl]carbamate]
< 100	C=CC(=O)NCCCC[C@H](NC(=O)OCc1ccccc1)C(=O)N1CCN(c2cccc(C)n2)CC1 [benzyl N-[(2S)-1-[4-(6-methylpyridin-2-yl)piperazin-1-yl]-1-oxo-6-(prop-2-enamido)hexan-2-yl]carbamate]
